Like-named read-outs stand apart in the source and are kept apart here.
Experiments:
[1] = tested on: HL-60(TB); assay: NCI-60 growth inhibition, HL-60(TB); type: cell-based, human; settings: Leukemia HL-60(TB), 48 h
Excerpt: (§1) The anticancer effects of compounds 1a-1b against 60 human cancer cell lines (the Developmental Therapeutics Program of NCI) were studied. The cell lines were derived from different cancer types including leukemia, non-small-cell lung cancer, colon cancer, CNS cancer, melanoma, ovarian cancer, renal cancer, prostate cancer, and breast cancer (Table 1; the assay protocol can be found at: https://dtp.cancer.gov/default.htm). Compound 1a caused over 50% growth inhibition for most tested cell lines. […] Without wishing to be bound by any particular theory, it is believed that the differences in the anticancer effects between compounds 1a and 1b may be due to the more favorable cell membrane permeability of the boronic ester 1a.

[2] = tested on: K-562; assay: NCI-60 growth inhibition, K-562; type: cell-based, human
Excerpt: as §1

[3] = tested on: RPMI-8226; assay: NCI-60 growth inhibition, RPMI-8226; type: cell-based, human
Excerpt: as §1

[4] = tested on: SR; assay: NCI-60 growth inhibition, SR; type: cell-based, human; settings: Leukemia SR, 48 h
Excerpt: as §1

[5] = tested on: A549/ATCC; assay: NCI-60 growth inhibition, A549/ATCC; type: cell-based, human; settings: Non-Small Cell lung Cancer A549/ATCC, 48 h
Excerpt: as §1

[6] = tested on: EKVX; assay: NCI-60 growth inhibition, EKVX; type: cell-based, human; settings: Non-Small Cell lung Cancer EKVX, 48 h
Excerpt: as §1

[7] = tested on: NCI-H226; assay: NCI-60 growth inhibition, NCI-H226; type: cell-based, human
Excerpt: as §1

[8] = tested on: COLO 205; assay: NCI-60 growth inhibition, COLO 205; type: cell-based, human
Excerpt: as §1

[9] = tested on: KM12; assay: NCI-60 growth inhibition, KM12; type: cell-based, human
Excerpt: as §1

[10] = tested on: SF-268; assay: NCI-60 growth inhibition, SF-268; type: cell-based, human
Excerpt: as §1

[11] = tested on: SF-539; assay: NCI-60 growth inhibition, SF-539; type: cell-based, human
Excerpt: as §1

[12] = tested on: SNB-19; assay: NCI-60 growth inhibition, SNB-19; type: cell-based, human
Excerpt: as §1

[13] = tested on: U251; assay: NCI-60 growth inhibition, U251; type: cell-based, human
Excerpt: as §1

[14] = tested on: LOX IMVI; assay: NCI-60 growth inhibition, LOX IMVI; type: cell-based, human; settings: Melanoma LOX IMVI, 48 h
Excerpt: as §1

[15] = tested on: MALME-3M; assay: NCI-60 growth inhibition, MALME-3M; type: cell-based, human; settings: Melanoma MALME-3M, 48 h
Excerpt: as §1

[16] = tested on: M14; assay: NCI-60 growth inhibition, M14; type: cell-based, human
Excerpt: as §1

[17] = tested on: UACC-257; assay: NCI-60 growth inhibition, UACC-257; type: cell-based, human
Excerpt: as §1

[18] = tested on: IGROV1; assay: NCI-60 growth inhibition, IGROV1; type: cell-based, human
Excerpt: as §1

[19] = tested on: OVCAR-4; assay: NCI-60 growth inhibition, OVCAR-4; type: cell-based, human
Excerpt: as §1

[20] = tested on: OVCAR-5; assay: NCI-60 growth inhibition, OVCAR-5; type: cell-based, human
Excerpt: as §1

[21] = tested on: SK-OV-3; assay: NCI-60 growth inhibition, SK-OV-3; type: cell-based, human
Excerpt: as §1

[22] = tested on: A498; assay: NCI-60 growth inhibition, A498; type: cell-based, human
Excerpt: as §1

[23] = tested on: TK-10; assay: NCI-60 growth inhibition, TK-10; type: cell-based, human
Excerpt: as §1

[24] = tested on: UO-31; assay: NCI-60 growth inhibition, UO-31; type: cell-based, human
Excerpt: as §1

[25] = tested on: DU-145; assay: NCI-60 growth inhibition, DU-145; type: cell-based, human
Excerpt: as §1

[26] = tested on: MCF7; assay: NCI-60 growth inhibition, MCF7; type: cell-based, human
Excerpt: as §1

[27] = tested on: 60 human cancer cell lines; assay: NCI-60 cellular antitumor activity profiling, panel summary; type: cell-based; settings: 48 h; for inhibition at 50 µM: Homo sapiens
Excerpt: as §1

[28] = tested on: MCF7 cells pretreated with the ROS scavenger N-Acetyl-Cysteine (NAC); assay: Cell viability of MCF7 cells pretreated with ROS scavenger NAC; type: cell-based, human; settings: 10 mM NAC, pre-incubation 2 hours
Procedure: FIG. 3 illustrates the effect of ROS on the activation of 1a-b. Cell viability assay of MCF7 cancer cells treated with varying concentrations of 1a-b in the presence of 10 mM NAC. Pre-incubation with this ROS scavenger was carried out for 2 hours. Data are presented as mean SD, n=4.
Cell Counting Kit-8 (CCK8, Dojingo) was used to carry out the cytotoxicity assessment of the prodrugs. Seeded cells were treated with varying compound concentrations for 48-72 h and the CCK8 kit was used to measure the cytotoxicity. For NAC experiments, this ROS scavenger was pre-incubated with the cells for 2 h and then co-incubated with the prodrugs for additional 48 hours unless otherwise noted.
The anticancer effects of new compounds 1a and 1b were tested using the breast cancer MCF7 cells and normal MEC1 cells (FIGS. 2A and 2B). […] These differential killing results highlight the specificity of new prodrugs 1a-1b for cancer cells over normal cells. […] To further verify the role of ROS in the drug release process, the MTT assays was performed, using MCF7 cells pretreated with the ROS scavenger N-Acetyl-Cysteine (NAC).

## CC1(C)OB(c2ccc(Cn3cc(F)c(=O)[nH]c3=O)cc2)OC1(C)C [Compound 1a, 5-Fluoro-1-(4-(4,4,5,5-tetramethyl-1,3,2-dioxaborolan-2-yl)benzyl)pyrimidine-2,4(1H,3H)-dione]
[1]; Homo sapiens
  inhibition at 50 µM: 68%
[2]; Homo sapiens, K562, Leukemia K-562, 48 h
  inhibition at 50 µM: 70%
[3]; Homo sapiens, Leukemia RPMI-8226, 48 h
  inhibition at 50 µM: 32%
[4]; Homo sapiens
  inhibition at 50 µM: 60%
[5]; Homo sapiens
  inhibition at 50 µM: 24%
[6]; Homo sapiens
  inhibition at 50 µM: 28%
[7]; Homo sapiens, Non-Small Cell lung Cancer NCI-H226, 48 h
  inhibition at 50 µM: 36%
[8]; Homo sapiens, Colon Cancer COLO 205, 48 h
  inhibition at 50 µM: 64%
[9]; Homo sapiens, Colon Cancer KM12, 48 h
  inhibition at 50 µM: 74%
[10]; Homo sapiens, CNS Cancer SF-268, 48 h
  inhibition at 50 µM: 31%
[11]; Homo sapiens, CNS Cancer SF-539, 48 h
  inhibition at 50 µM: 39%
[12]; Homo sapiens, CNS Cancer SNB-19, 48 h
  inhibition at 50 µM: 29%
[13]; Homo sapiens, U-251, CNS Cancer U251, 48 h
  inhibition at 50 µM: 17%
[14]; Homo sapiens
  inhibition at 50 µM: 47%
[15]; Homo sapiens
  inhibition at 50 µM: 55%
[16]; Homo sapiens, Melanoma M14, 48 h
  inhibition at 50 µM: 55%
[17]; Homo sapiens, Melanoma UACC-257, 48 h
  inhibition at 50 µM: 33%
[18]; Homo sapiens, IGROV-1, Ovarian Cancer IGROV1, 48 h
  inhibition at 50 µM: 56%
[19]; Homo sapiens, Ovarian Cancer OVCAR-4, 48 h
  inhibition at 50 µM: 30%
[20]; Homo sapiens, Ovarian Cancer OVCAR-5, 48 h
  inhibition at 50 µM: 30%
[21]; Homo sapiens, Ovarian Cancer SK-OV-3, 48 h
  inhibition at 50 µM: 31%
[22]; Homo sapiens, Renal Cancer A498, 48 h
  inhibition at 50 µM: 74%
[23]; Homo sapiens, Renal Cancer TK-10, 48 h
  inhibition at 50 µM: 21%
[24]; Homo sapiens, Renal Cancer UO-31, 48 h
  inhibition at 50 µM: 27%
[25]; Homo sapiens, Prostate Cancer DU-145, 48 h
  inhibition at 50 µM: 16%
[26]; Homo sapiens, Breast Cancer MCF7, 48 h
  inhibition at 50 µM: 81%
[27]; lung cancer NCI-H522, melanoma MDA-MB-435, ovarian cancer OVCAR-3, breast cancer MCF7 and MDA-MB-468 cells, read-out: most significant inhibition
  inhibition at 50 µM: 81 to 96%
[27]; most cell lines of the NCI-60 panel, read-out: growth inhibition for most tested cell lines
  inhibition at 50 µM: > 50%
[28]
  anticancer effects upon pretreatment of NAC: decreased significantly

## O=c1[nH]c(=O)n(Cc2ccc(B(O)O)cc2)cc1F [Compound 1b, (4-((5-Fluoro-2,4-dioxo-3,4-dihydropyrimidin-I(2H)-yl)methyl)phenyl)boronic acid]
[1]; 50 μM
  Growth Inhibition (%): 11%
[2]; Leukemia K-562, 50 μM, 48 h
  Growth Inhibition (%): 18%
[3]; Leukemia RPMI-8226, 50 μM, 48 h
  Growth Inhibition (%): 2%
[4]; 50 μM
  Growth Inhibition (%): 16%
[5]; 50 μM
  Growth Inhibition (%): 4%
[6]; 50 μM
  Growth Inhibition (%): 16%
[7]; Non-Small Cell lung Cancer NCI-H226, 50 μM, 48 h
  Growth Inhibition (%): 19%
[8]; Colon Cancer COLO 205, 50 μM, 48 h
  Growth Inhibition (%): 8%
[9]; Colon Cancer KM12, 50 μM, 48 h
  Growth Inhibition (%): 20%
[10]; CNS Cancer SF-268, 50 μM, 48 h
  Growth Inhibition (%): 14%
[11]; CNS Cancer SF-539, 50 μM, 48 h
  Growth Inhibition (%): 13%
[12]; CNS Cancer SNB-19, 50 μM, 48 h
  Growth Inhibition (%): 11%
[13]; CNS Cancer U251, 50 μM, 48 h
  Growth Inhibition (%): 4%
[14]; 50 μM
  Growth Inhibition (%): 8%
[15]; 50 μM
  Growth Inhibition (%): 32%
[16]; Melanoma M14, 50 μM, 48 h
  Growth Inhibition (%): 17%
[17]; Melanoma UACC-257, 50 μM, 48 h
  Growth Inhibition (%): 14%
[18]; Ovarian Cancer IGROV1, 50 μM, 48 h
  Growth Inhibition (%): 15%
[19]; Ovarian Cancer OVCAR-4, 50 μM, 48 h
  Growth Inhibition (%): 2%
[20]; Ovarian Cancer OVCAR-5, 50 μM, 48 h
  Growth Inhibition (%): 19%
[21]; Ovarian Cancer SK-OV-3, 50 μM, 48 h
  Growth Inhibition (%): 13%
[22]; Renal Cancer A498, 50 μM, 48 h
  Growth Inhibition (%): 31%
[23]; Renal Cancer TK-10, 50 μM, 48 h
  Growth Inhibition (%): 20%
[24]; Renal Cancer UO-31, 50 μM, 48 h
  Growth Inhibition (%): 27%
[25]; Prostate Cancer DU-145, 50 μM, 48 h
  Growth Inhibition (%): −6%
[26]; Breast Cancer MCF7, 50 μM, 48 h
  Growth Inhibition (%): 33%
[27]; most cell lines of the NCI-60 panel, 50 μM
  growth inhibition for most tested cell lines: less than 50%
[28]
  anticancer effects upon pretreatment of NAC: decreased significantly

— patent US20220041627A1, “PRODRUGS OF ANTI-CANCER AND ANTI-AUTOIMMUNE DISEASES THERAPEUTIC AGENTS, AND METHODS OF MAKING AND USE THEREOF” (UNIVERSITY OF MARYLAND, BALTIMORE, priority 2018, published 2022)
